The record followed here is ChEMBL document CHEMBL5344418, “Recent developments in antimalarial activities of 4-aminoquinoline derivatives” (Eur J Med Chem, 2023).

What is called IC50 is the point on the concentration scale where inhibition reaches its midpoint. A word on the CC50: it is the concentration giving 50% cytotoxicity.

The test system of series [1] is Plasmodium falciparum. Put plainly: Antiplasmodial activity against chloroquine-sensitive Plasmodium falciparum 3D7 assessed as parasitic growth inhibition incubated for 72 hrs by SYBR Green staining based fluorescence analysis. It is filed as functional, organism-based. As to conditions: 3D7, 72 h.
Series [2] relates to Plasmodium falciparum. Put plainly: Antiplasmodial activity against chloroquine-resistant Plasmodium falciparum W2 assessed as parasitic growth inhibition incubated for 72 hrs by SYBR Green staining based fluorescence analysis. It is filed as functional, organism-based. The following applies: W2, 72 h.
In series [3] the test system is Plasmodium falciparum. Put plainly: Antiplasmodial activity against Plasmodium falciparum Dd2 assessed as reduction in parasitic growth incubated for 48 hrs by SYBR Green staining based fluorescence analysis. It is filed as functional, organism-based. As to conditions: Dd2, 48 h.
Series [4] concerns Plasmodium falciparum. Put plainly: Antiplasmodial activity against Plasmodium falciparum 3D7 assessed as reduction in parasite growth by Lactate dehydrogenase assay. In kind it is functional, organism-based.
Series [5] concerns Plasmodium falciparum. Put plainly: Antimalarial activity against Plasmodium falciparum Dd2 assessed as reduction in parasitic growth incubated for 48 hrs by SYBR green assay. In kind it is functional, organism-based. As to conditions: Dd2, 48 h.
Series [6] in a line: Cytotoxicity against African green monkey Vero cells assessed as reduction in cell viability incubated for 24 hrs by fluorescence based analysis. In kind it is toxicity. As to conditions: African green monkey (Chlorocebus sabaeus).
In series [7] the test system is Plasmodium falciparum. Put plainly: Antimalarial activity against chloroquine-resistant Plasmodium falciparum W2 assessed as growth inhibition incubated for 48 hrs by flow cytometry based analysis. As to conditions: W2, 48 h. In kind it is functional, organism-based. On the technique in general: In flow cytometry, cells or beads pass a laser one at a time.
Series [8] concerns Plasmodium falciparum. Put plainly: Antiplasmodial activity against Plasmodium falciparum 3D7. It is filed as functional, organism-based.
In series [9] the test system is Plasmodium falciparum. Put plainly: Antimalarial activity against chloroquine-sensitive Plasmodium falciparum 3D7 assessed as reduction in parasite growth incubated for 36 hrs by Giemsa staining based microscopic analysis. In kind it is functional, organism-based. As to conditions: 3D7, 36 h.
Series [10] can be described thus: Cytotoxicity against African monkey Vero cells assessed as reduction in cell viability incubated for 72 hrs by MTT assay. In kind it is toxicity, cell-based. The following applies: chlorocebus sabaeus. Background: Formazan colour is commonly taken as a measure of viable cells.
Series [11] relates to Plasmodium falciparum. Put plainly: Antiplasmodial activity against Plasmodium falciparum K1. In kind it is functional, organism-based.
Series [12] can be described thus: Cytotoxicity against African green monkey Vero cells. In kind it is toxicity, cell-based. As to conditions: chlorocebus sabaeus.

On to `OB1OCc2ccc(OCc3cn(-c4ccnc5ccc(Cl)cc45)nn3)cc21`, for which the half-inhibitory concentration (IC50) in series [1] worked out at 4.87 µM; in series [2], 5.22 µM. Take `COc1ccc2nc(/C=C/c3ccncc3)cc(NCCN(C)C)c2c1`: in series [3], the IC50 is 0.033 µM.

On to `O=C(/C=C/c1cccc(Nc2ccnc3cc(Cl)ccc23)c1)OC1CCCCC1`, for which the concentration for half-maximal inhibition (IC50) in series [4] was 16.4 µM. Consider `COc1ccc2nc(/C=C/c3ccc([N+](=O)[O-])cc3)cc(N3CCOCC3)c2c1`, for which the IC50 in series [5] was above 10 µM. Consider `CC1(C)OB(c2ccc(OCc3cn(CCCNc4ccnc5cc(Cl)ccc45)nn3)cc2C=O)OC1(C)C`, for which the values for the concentration for half-maximal inhibition (IC50) in series [1] and in series [2] were 5.18 µM and 4.64 µM, respectively. `O=C1c2ccc(N3CCOCC3)cc2C(=O)N1CCNc1ccnc2cc(Cl)ccc12`: in series [6], the IC50 at 24 h was determined as 28.6 µM. Also, the IC50 in series [7] is 0.37 µM. In turn, `COc1ccc(C(CCN(C)C)NCC(C)Nc2ccnc3cc(Cl)ccc23)cc1` (centres undefined) gave a half-inhibitory concentration (IC50) in [8] of 8.25 µM.

Consider `COc1ccc2nc(/C=C/c3ccncc3)cc(N3CCCCC3)c2c1`, for which the IC50 in [3] was found to be 4.9 µM. In the case of `O=C(Cn1cc(COc2ccc(Cl)cc2)nn1)NCCCNc1ccnc2cc(Cl)ccc12`, the IC50 in series [9] was determined as 90 µM. Further, the CC50 at 72 h in series [10] worked out at 27.1 µM. The molecule `O=[N+]([O-])c1ccc(NNc2ccnc3cc(Cl)ccc23)cc1` returned an IC50 in series [11] of 3.26 µM.

As for `O=C1c2cccc(N3CCCCC3)c2C(=O)N1CCCNc1ccnc2cc(Cl)ccc12`, in series [6], the IC50 at 24 h amounted to 55.8 µM. The IC50 in series [7] stood at 0.162 µM.

For the molecule `O=C(Cn1cc(COc2ccc(Cl)cc2)nn1)NCCCCNc1ccnc2cc(Cl)ccc12`, the IC50 in series [9] was found to be 92.8 µM. The CC50 at 72 h in series [10] stood at 10.9 µM. Molecule `N=C(N=C(N)N)SCCCNc1ccnc2cc(C(F)(F)F)ccc12` came in with a CC50 in series [12] above 10.6 µM. Consider `O=C1c2ccc(N3CCCCC3)cc2C(=O)N1CCCCCCNc1ccnc2cc(Cl)ccc12`, for which the IC50 at 24 h in series [6] stood at 25.5 µM. For the same molecule, the IC50 in series [7] came out at 0.012 µM. For `O=C1c2ccc(N3CCOCC3)cc2C(=O)N1CCCNc1ccnc2cc(Cl)ccc12`, in that order: 222 µM and 0.118 µM. `COc1ccc(C(=O)NNc2ccnc3cc(Cl)ccc23)cc1` had an IC50 in [11] of 1.13 µM. `Cc1ccc(C(CCN2CCOCC2)NCC(C)Nc2ccnc3cc(Cl)ccc23)cc1` (centres undefined): the IC50 in [8] is 2.94 µM. Regarding `O=Cc1cc(OCc2cn(-c3ccnc4ccc(Cl)cc34)nn2)ccc1Br`, the IC50 in series [1] worked out at 6.19 µM; in series [2], 7.39 µM. With `O=C(Cn1cc(COc2ccc(Cl)cc2)nn1)NCCNc1ccnc2cc(Cl)ccc12`, the IC50 in series [9] is 0.04 µM. In addition, the CC50 at 72 h in series [10] was 28.9 µM.

As to `COc1ccc2nc(/C=C/c3ccncc3)cc(NC3CCCCC3)c2c1`, in [3], the IC50 amounted to 0.277 µM. In [12], `CCc1nc(N)nc(N)c1-c1ccc(Cl)cc1` [PYRIMETHAMINE] showed a CC50 of 18.1 µM. As to `CCOC(=O)/C=C/c1cccc(Nc2ccnc3cc(Cl)ccc23)c1`, the IC50 in series [4] worked out at 14.4 µM.

`COc1ccc2nc(/C=C/c3ccc([N+](=O)[O-])cc3)cc(NC3CCCCC3)c2c1`: the IC50 in series [5] was 0.171 µM. As to `O=Cc1cc(OCc2cn(CCNc3ccnc4cc(Cl)ccc34)nn2)ccc1Br`, the results for the half-maximal inhibitory concentration (IC50) in series [1] and in series [2] were 4.3 µM and 5.07 µM, respectively. In the case of `N=C(N=C(N)N)SCCNc1ccnc2cc(C(F)(F)F)ccc12`, in series [12], the CC50 is above 10.9 µM. As for `COc1ccc2nc(/C=C/c3ccncc3)cc(N3CCOCC3)c2c1`, in series [3], the IC50 is above 10 µM. On to `N=C(N=C(N)N)SCCNc1ccnc2cc(Cl)ccc12`, for which the 50% cytotoxic concentration (CC50) in [12] was above 11.8 µM.

For the molecule `O=C1c2ccc(N3CCCCC3)cc2C(=O)N1CCCNc1ccnc2cc(Cl)ccc12`, the IC50 at 24 h in series [6] worked out at 55.8 µM. Further, in series [7], the IC50 came out at 0.176 µM. On to `O=Cc1cc(OCc2cn(CCCNc3ccnc4cc(Cl)ccc34)nn2)ccc1Br`, for which the IC50 was 6.29 µM in [1] and 7.09 µM in [2]. Consider `COc1ccc2nc(/C=C/c3ccc([N+](=O)[O-])cc3)cc(Nc3ccccc3)c2c1`, for which, in series [5], the IC50 turned out to be 0.509 µM.

Turning to `COC(=O)/C=C/c1ccccc1Nc1ccnc2cc(OC)ccc12`, in series [4], the IC50 came to 15.3 µM.

In the case of `Cc1ccc(C(=O)NNc2ccnc3cc(Cl)ccc23)cc1`, in [11], the IC50 was found to be 0.92 µM. For `O=C(Cn1cc(COc2ccccc2)nn1)NCCCNc1ccnc2cc(Cl)ccc12`, in series [9], the IC50 is 180 µM. The CC50 at 72 h in [10] was determined as 40.6 µM.

Turning to `COC(=O)/C=C/c1ccccc1Nc1ccnc2cc(Cl)ccc12`, the IC50 in series [4] came out at 2.32 µM. For `O=C(Cn1cc(COc2ccc(Br)cc2)nn1)NCCCNc1ccnc2cc(Cl)ccc12`, in [9], the IC50 was found to be 38.8 µM. The 50% cytotoxic concentration (CC50) at 72 h in series [10] worked out at 75.5 µM.

For `O=C(Cn1cc(COc2ccc(Cl)cc2)nn1)NCCCCCCNc1ccnc2cc(Cl)ccc12`, the IC50 in [9] turned out to be 263 µM. Also, in series [10], the CC50 at 72 h was determined as 7.41 µM. Turning to `Cc1ccc(C(CCN(C)C)NCC(C)Nc2ccnc3cc(Cl)ccc23)cc1` (centres undefined), the midpoint of inhibition in series [8], the IC50, lay at 5.17 µM. Regarding `O=C(O)/C=C/c1cccc(Nc2ccnc3cc(Cl)ccc23)c1`, the concentration for half-maximal inhibition (IC50) in series [4] came to 9.63 µM.
